Measurements reported in PubChem BioAssay (NCI).
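The compound was tested at five concentrations on cells cultured in 96-well plates, with a 48-hour exposure period. The concentration for 50% growth inhibition is given as GI50. TGI: concentration producing complete growth inhibition.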

Experiments:
Assay in all cases: NCI tumour cell line growth inhibition, 48 h
[1] = system: BT-549 breast
[2] = system: CAKI-1 renal
[3] = system: LOX IMVI melanoma
[4] = system: MCF7 breast
[5] = system: MOLT-4 leukemia
[6] = system: RPMI-8226 leukemia
[7] = system: T-47D breast
[8] = system: UACC-257 melanoma
[9] = system: LXFL 529 NSCLC
[10] = system: M19-MEL melanoma

Row | SMILES | GI50 [1] | TGI [1] | GI50 [2] | TGI [2] | GI50 [3] | TGI [3] | GI50 [4] | TGI [4] | GI50 [5] | TGI [5] | GI50 [6] | TGI [6] | GI50 [7] | TGI [7] | GI50 [8] | TGI [8] | TGI [9] | TGI [10]
1 | CN1CCN(c2ccc(NC(=O)c3cncnc3Nc3ccc(OCc4ccccn4)c(Cl)c3)cc2)CC1 | 5.18 µM | 11.1 µM | 4.78 µM | 11.7 µM | 3.39 µM | 8.46 µM | 2.8 µM | 8.53 µM | 1.64 µM | 9.42 µM | 1.33 µM | 6.7 µM | 1.98 µM | 7.83 µM | 0.718 µM | 1.61 µM | – | –
2 | Cc1cc(-c2ccccn2)cc(C)c1/C=C/c1cncc(-c2nn[nH]n2)c1 | > 25 µM | > 25 µM | > 25 µM | > 25 µM | > 25 µM | > 25 µM | > 25 µM | > 25 µM | > 25 µM | > 25 µM | > 25 µM | > 25 µM | > 25 µM | > 25 µM | > 25 µM | > 25 µM | – | –
3 | C=C1C(=O)O[C@H]2[C@H]1CC/C(COC(=O)C(C)c1ccc(CC(C)C)cc1)=C\CC[C@@]1(C)O[C@@H]21 (stereo not given in full) | 0.533 µM | 1.89 µM | 1.67 µM | 3.04 µM | 1.54 µM | 3.01 µM | 0.791 µM | 2.49 µM | 0.42 µM | 2.02 µM | 0.278 µM | 1.19 µM | 1.72 µM | 4.43 µM | 1.66 µM | 3.32 µM | – | –
4 | CC1=C(C(=O)Nc2cc(Cl)c3[nH]ncc3c2)C(c2ccc(C(F)(F)F)cc2)CC(=O)N1 (stereo not given) | 5.07 µM | > 25 µM | > 25 µM | > 25 µM | > 20.4 µM | > 25 µM | > 16.1 µM | > 25 µM | 11.8 µM | > 25 µM | 24.9 µM | > 25 µM | > 12.8 µM | > 25 µM | > 25 µM | > 25 µM | – | –
5 | C=C(CO)[C@@H]1CC[C@]2(COC3CCCCO3)CC[C@]3(C)[C@H](CC[C@@H]4[C@@]5(C)C=C(C=O)C(=O)C(C)(C)[C@@H]5CC[C@]43C)[C@@H]12 (stereo not given in full) | 0.221 µM | 0.619 µM | 0.245 µM | 0.7 µM | 0.191 µM | 0.392 µM | 0.479 µM | 1.97 µM | 0.307 µM | 1.21 µM | 0.244 µM | 0.777 µM | 0.332 µM | 1.65 µM | 0.367 µM | 1.61 µM | – | –
6 | CC(=O)c1c(CO[N+](=O)[O-])n([O-])c2ccccc2[n+]1=O | – | > 100 µM | – | > 100 µM | – | > 100 µM | – | > 100 µM | – | > 100 µM | – | > 100 µM | – | > 100 µM | – | > 100 µM | – | –
7 | O=C(N/N=C/c1ccc(O)cc1O)c1cccc(Nc2ccnc(C(F)(F)F)c2)c1 | 1.45 µM | 50.8 µM | 1.99 µM | 22.5 µM | 0.501 µM | 12.5 µM | 2.2 µM | 15.5 µM | 0.491 µM | 4.56 µM | 3.55 µM | 14.9 µM | 0.66 µM | 15.6 µM | 3.06 µM | 12.3 µM | – | –
8 | O=C(O)c1c(=O)cccc2ssc12 | 1.68 µM | 3.12 µM | 12 µM | 24.6 µM | 1.78 µM | 3.42 µM | 1.83 µM | 3.9 µM | 2.13 µM | 5.11 µM | 2.19 µM | 5.66 µM | 2.15 µM | 5.24 µM | 2.02 µM | 4.19 µM | – | –
9 | COC(=O)c1cc2c3ccccc3[nH]c2c2sccc12 | 20.2 µM | 57 µM | 13.7 µM | 98.3 µM | 5.68 µM | 24.8 µM | 27 µM | > 100 µM | 15.7 µM | > 100 µM | 15.1 µM | > 100 µM | 6.73 µM | 47.1 µM | 89.6 µM | > 100 µM | – | –
10 | Cc1ccc(NC(=O)CSc2nnc3n(Cc4ccccc4)c(=O)c4c(C)c(C(N)=O)sc4n23)cc1 | 12.7 µM | 72 µM | > 100 µM | > 100 µM | > 100 µM | > 100 µM | > 100 µM | > 100 µM | 27.3 µM | 81.5 µM | > 100 µM | > 100 µM | 8.12 µM | > 100 µM | > 100 µM | > 100 µM | – | –
11 | CN(Cc1cc(Br)cc(Br)c1O)Cc1c(O)ccc2ccccc12 | – | 49 µM | – | 31.5 µM | – | 42.5 µM | – | 58.3 µM | – | 30 µM | – | > 100 µM | – | 43.8 µM | – | 37.5 µM | – | –
12 | Cc1cc2c(C(N)=O)c(N)n(-c3c(C)ccc(O)c3C)c2nc1C | 3.06 µM | 16.7 µM | 0.4 µM | 10.3 µM | 1.5 µM | 4.85 µM | 3.41 µM | > 100 µM | 2.86 µM | > 100 µM | 3.48 µM | > 100 µM | 6.68 µM | > 100 µM | 3.13 µM | 51.6 µM | – | –
13 | O=C1C2CCN(CC2)C1(CO)CO | – | 41.7 µM | – | 40 µM | – | 36 µM | – | 66.4 µM | – | 23.6 µM | – | 43.4 µM | – | 45.4 µM | – | 37.7 µM | – | –
14 | O=C1OC(=O)C2CCCC3CCCC1C32 (stereo not given) | – | > 100 µM | – | > 100 µM | – | > 100 µM | – | > 100 µM | – | > 100 µM | – | > 100 µM | – | > 100 µM | – | > 100 µM | – | –
15 | C/C=C(\CCOS(=O)(=O)c1ccc(C)cc1)[Si](C)(C)C | – | – | – | – | – | > 100 µM | – | – | – | > 100 µM | – | > 100 µM | – | – | – | > 100 µM | > 100 µM | > 100 µM
16 | O=C(CCn1[nH]c(=O)c(Cl)c(Cl)c1=O)NNC(=O)C[n+]1ccccc1 | – | – | – | > 100 µM | – | > 100 µM | – | – | – | > 100 µM | – | > 100 µM | – | – | – | – | > 100 µM | > 100 µM
17 | CC1(N)CCN(c2cnc(-c3cccc(Cl)c3Cl)c(N)n2)CC1 | 10.8 µM | 26.2 µM | 14.8 µM | > 100 µM | 15.3 µM | 30 µM | 17.2 µM | 37.2 µM | 22.7 µM | 99.3 µM | 13.8 µM | 40.1 µM | 17.3 µM | 68.4 µM | 17 µM | 35.2 µM | – | –
